Our source for the IC50 values is patent US9918990B2, “Substituted pyrrolo[2,3-c]pyridines and pyrazolo[3,4-c]pyridines as BET protein inhibitors” (Incyte Corporation, priority 2013, dated 2018).

One experiment concerns the target BRD4-BD1 (Homo sapiens (Human), UniProt O60885). In words: BRD4 AlphaScreen assay, BRD4-BD1. Format: binding. The settings on record: H4Ac4 peptide, 75 min, room temperature, read-out: BRD4 BD-1 enzyme IC50. The protocol:
(§1) BRD4-BD1 and BRD4-BD2 assays were conducted in white 384-well polystyrene plate in a final volume of 20 μL for BD1 and 40 μL for BD2. Inhibitors were first serially diluted in DMSO and added to the plate wells before the addition of other reaction components. […] After plate sealing, the plate was incubated in the dark at room temperature for 75 min. before reading on a PHERAstar FS plate reader (BMG Labtech). IC50 determination was performed by fitting the curve of percent control activity versus the log of the inhibitor concentration using the GraphPad Prism 5.0 software.

For a further experiment, the target named is BRD4-BD2 (Homo sapiens (Human), UniProt O60885). In words: BRD4 AlphaScreen assay, BRD4-BD2. Type of experiment: binding. The settings on record: H4Ac4 peptide, 75 min, room temperature, read-out: BRD4 BD-2 enzyme IC50. On the procedure: as §1
A general note: Alpha assays give light when donor and acceptor beads are brought close together.

For a further experiment, the system named is KMS.12.BM cells. In words: KMS.12.BM cell viability assay (Cell Titer-GLO, ATP quantitation). Type of experiment: cell-based. Conditions: Homo sapiens, 72 h, 3 days, concentration required for 50% cell death, read-out: KMS cellular IC50. The protocol:
KMS.12.BM cell line (human myeloma) was purchased from JCRB (Osaka, Japan) and maintained in RPMI with 10% FBS culture medium. To measure the cytotoxic activity of the compounds through ATP quantitation, the KMS.12.BM cells are plated in the RPMI culture medium at 5000 cells/well/per 100 μL into a 96-well polystyrene clear black tissue culture plate (Greiner-bio-one through VWR, NJ), in the presence or absence of a concentration range of test compounds. After 3 days, […] Cell Titer-GLO Luminescent (Promega, Madison, Wis.) cell culture agent is added to each well for 10 minutes at room temperature to stabilize the luminescent signal. This determines the number of viable cells in culture based on quantitation of the ATP present, which signals the presence of metabolically active cells. Luminescence is measured with the Top Count 384 (Packard Bioscience through Perkin Elmer, Boston, Mass.). Compound inhibition is determined relative to cells cultured with no drug and the IC50 is reported as the compound concentration required for 50% cell death. IC50 data for the Examples is presented in Table 9 as determined by Assay B1.
Background: Cellular ATP, detected with luciferase, serves as a proxy for viable cell number.

For another experiment, the system named is C-myc. In words: KMS.12.BM C-myc ELISA assay. Format: cell-based. Conditions: Homo sapiens; KMS.12.BM cells, 2 hours, concentration required for 50% C-myc inhibition. On the procedure: KMS.12.BM cell line (human myeloma) was purchased from JCRB (Osaka, Japan) and maintained in RPMI with 10% FBS culture medium. To measure the C-myc inhibitory activity of the compounds, the KMS.12.BM cells are plated in the RPMI culture medium at 75000 cells/well/per 200 μL into a 96-well flat bottom polystyrene tissue culture plate (Corning through VWR, NJ), in the presence or absence of a concentration range of test compounds. After 2 hours, cell are pelleted and lysed with Cell Extraction Buffer (BioSource, Carlsbad, Calif.) in the presence of protease inhibitors (Life Technologies, Grand Island, N.Y. and Sigma, St Louis, Mo.). Clarified lyses are tested in a C-myc commercial ELISA (Life Technologies, Grand Island, N.Y.). Compound inhibition is determined relative to cells cultured with no drug and the IC50 is reported as the compound concentration required for 50% C-myc inhibition. IC50 data for the Examples is presented in Table 10 as determined by Assay C1.
(In general: In an ELISA, binding on a coated surface is turned into a signal by an enzyme label.)

Turning to `Cn1cc(-c2ccc3[nH]cnc3c2OCC2CC2)c2cc[nH]c2c1=O` [Example 12, 4-[4-(Cyclopropylmethoxy)-1H-benzimidazol-5-yl]-6-methyl-1,6-dihydro-7H-pyrrolo[2,3-c]pyridin-7-one], the IC50 (in general, the concentration that inhibits the measured activity by half) on BRD4-BD1 is < 0.1 µM; at BRD4-BD2, < 0.1 µM; in the experiment on KMS.12.BM cells, ≤ 1 µM; in the experiment with C-myc, ≤ 1 µM.
Take `Cc1nc2c(OCC3CC3)c(-c3cn(C)c(=O)c4[nH]ccc34)ccc2[nH]1` [Example 13, 4-[4-(Cyclopropylmethoxy)-2-methyl-1H-benzimidazol-5-yl]-6-methyl-1,6-dihydro-7H-pyrrolo[2,3-c]pyridin-7-one]: the IC50 is < 0.1 µM on BRD4-BD1, < 0.1 µM at BRD4-BD2, ≤ 1 µM in the experiment with KMS.12.BM cells and ≤ 1 µM in the experiment with C-myc.
On to `Cn1cc(-c2ccc3[nH]cnc3c2Oc2ccc(F)cc2F)c2cn[nH]c2c1=O` [Example 14, 4-[4-(2,4-Difluorophenoxy)-1H-benzimidazol-5-yl]-6-methyl-1,6-dihydro-7H-pyrazolo[3,4-c]pyridin-7-one], for which the IC50 is < 0.1 µM at BRD4-BD1, < 0.1 µM on BRD4-BD2, ≤ 1 µM in the experiment on KMS.12.BM cells and ≤ 1 µM in the experiment with C-myc.
As to `Cc1nc2c(Oc3ccc(F)cc3F)c(-c3cn(C)c(=O)c4[nH]ncc34)ccc2[nH]1` [Example 15, 4-[4-(2,4-Difluorophenoxy)-2-methyl-1H-benzimidazol-5-yl]-6-methyl-1,6-dihydro-7H-pyrazolo[3,4-c]pyridin-7-one], the IC50 was < 0.1 µM at BRD4-BD1, < 0.1 µM on BRD4-BD2, ≤ 1 µM with KMS.12.BM cells and ≤ 1 µM in the experiment on C-myc.
Turning to `Cn1cc(-c2ccc3[nH]c(=O)[nH]c3c2Oc2ccc(F)cc2F)c2cn[nH]c2c1=O` [Example 16, 4-[4-(2,4-Difluorophenoxy)-2-oxo-2,3-dihydro-1H-benzimidazol-5-yl]-6-methyl-1,6-dihydro-7H-pyrazolo[3,4-c]pyridin-7-one], the IC50 on BRD4-BD1 is < 0.1 µM; at BRD4-BD2, < 0.1 µM; in the experiment with KMS.12.BM cells, ≤ 1 µM; with C-myc, ≤ 1 µM.
On to `Cn1cc(-c2ccc3c(ncn3CCN3CCOCC3)c2Oc2ccc(F)cc2F)c2cn[nH]c2c1=O` [Example 17, 4-[4-(2,4-Difluorophenoxy)-1-(2-morpholin-4-ylethyl)-1H-benzimidazol-5-yl]-6-methyl-1,6-dihydro-7H-pyrazolo[3,4-c]pyridin-7-one], for which the IC50 was < 0.1 µM at BRD4-BD1, < 0.1 µM on BRD4-BD2, ≤ 1 µM with KMS.12.BM cells and ≤ 1 µM with C-myc.
Consider `Cn1cc(-c2ccc3c(ncn3C)c2Oc2ccc(F)cc2F)c2cn[nH]c2c1=O` [Example 18, 4-[4-(2,4-Difluorophenoxy)-1-methyl-1H-benzimidazol-5-yl]-6-methyl-1,6-dihydro-7H-pyrazolo[3,4-c]pyridin-7-one], for which the IC50 was < 0.1 µM at BRD4-BD1, < 0.1 µM on BRD4-BD2, ≤ 1 µM in the experiment with KMS.12.BM cells and ≤ 1 µM with C-myc.
For `Cc1nc2c(Oc3ccc(F)cc3F)c(-c3cn(C)c(=O)c4[nH]ncc34)ccc2n1C` [Example 19, 4-[4-(2,4-Difluorophenoxy)-1,2-dimethyl-1H-benzimidazol-5-yl]-6-methyl-1,6-dihydro-7H-pyrazolo[3,4-c]pyridin-7-one], the IC50 at BRD4-BD1 was < 0.1 µM; at BRD4-BD2, < 0.1 µM; in the experiment on KMS.12.BM cells, ≤ 1 µM; in the experiment on C-myc, ≤ 1 µM.
Turning to `Cn1cc(-c2ccc3c(nnn3C)c2Oc2ccc(F)cc2F)c2cn[nH]c2c1=O` [Example 20, 4-[4-(2,4-Difluorophenoxy)-1-methyl-1H-1,2,3-benzotriazol-5-yl]-6-methyl-1,6-dihydro-7H-pyrazolo[3,4-c]pyridin-7-one], the IC50 on BRD4-BD1 is < 0.1 µM; on BRD4-BD2, < 0.1 µM; in the experiment on KMS.12.BM cells it was ≤ 1 µM; in the experiment on C-myc, ≤ 1 µM.
As to `Cn1cc(-c2ccc3c([nH]c(=O)n3C)c2Oc2ccc(F)cc2F)c2cn[nH]c2c1=O` [Example 21, 4-[4-(2,4-Difluorophenoxy)-1-methyl-2-oxo-2,3-dihydro-1H-benzimidazol-5-yl]-6-methyl-1,6-dihydro-7H-pyrazolo[3,4-c]pyridin-7-one], the IC50 at BRD4-BD1 is < 0.1 µM; at BRD4-BD2 it was < 0.1 µM; with KMS.12.BM cells, ≤ 1 µM; with C-myc, ≤ 1 µM.
Turning to `Cn1cc(-c2ccc3[nH]c(=O)[nH]c3c2Oc2ccccc2)c2cc[nH]c2c1=O` [Example 22, 5-(6-Methyl-7-oxo-6,7-dihydro-1H-pyrrolo[2,3-c]pyridin-4-yl)-4-phenoxy-1,3-dihydro-2H-benzimidazol-2-one], the IC50 is < 0.1 µM on BRD4-BD1, < 0.1 µM on BRD4-BD2, ≤ 1 µM with KMS.12.BM cells and ≤ 1 µM in the experiment with C-myc.
As to `Cn1cc(-c2ccc3[nH]c(=O)[nH]c3c2Oc2ccc(F)cc2)c2cc[nH]c2c1=O` [Example 24, 4-(4-Fluorophenoxy)-5-(6-methyl-7-oxo-6,7-dihydro-1H-pyrrolo[2,3-c]pyridin-4-yl)-1,3-dihydro-2H-benzimidazol-2-one], the IC50 is < 0.1 µM at BRD4-BD1, < 0.1 µM on BRD4-BD2, ≤ 1 µM in the experiment on KMS.12.BM cells and ≤ 1 µM in the experiment with C-myc.
For `Cn1cc(-c2ccc3[nH]c(=O)[nH]c3c2Oc2cccc(F)c2)c2cc[nH]c2c1=O` [Example 25, 4-(3-Fluorophenoxy)-5-(6-methyl-7-oxo-6,7-dihydro-1H-pyrrolo[2,3-c]pyridin-4-yl)-1,3-dihydro-2H-benzimidazol-2-one], the IC50 on BRD4-BD1 was < 0.1 µM; at BRD4-BD2, < 0.1 µM; in the experiment with KMS.12.BM cells, ≤ 1 µM; in the experiment on C-myc it was ≤ 1 µM.
Turning to `Cn1cc(-c2ccc3[nH]c(=O)[nH]c3c2OC2CCCOC2)c2cc[nH]c2c1=O` (stereo not drawn) [Example 26, 5-(6-Methyl-7-oxo-6,7-dihydro-1H-pyrrolo[2,3-c]pyridin-4-yl)-4-(tetrahydro-2H-pyran-3-yloxy)-1,3-dihydro-2H-benzimidazol-2-one], the IC50 on BRD4-BD1 is < 0.1 µM; at BRD4-BD2, < 0.1 µM; in the experiment with KMS.12.BM cells, ≤ 1 µM; with C-myc, ≤ 1 µM.
For the molecule `Cn1cc(-c2ccc3c([nH]c(=O)n3C)c2OCc2ccccc2)c2cc[nH]c2c1=O` [Example 27, 4-(Benzyloxy)-1-methyl-5-(6-methyl-7-oxo-6,7-dihydro-1H-pyrrolo[2,3-c]pyridin-4-yl)-1,3-dihydro-2H-benzimidazol-2-one], the IC50 was 0.1 to 1 µM on BRD4-BD1, < 0.1 µM on BRD4-BD2, ≤ 1 µM with KMS.12.BM cells and ≤ 1 µM in the experiment with C-myc.
For the molecule `Cn1cc(-c2ccc3c([nH]c(=O)n3C)c2OCc2ccc(F)cc2F)c2cc[nH]c2c1=O` [Example 28, 4-[(2,4-Difluorobenzyl)oxy]-1-methyl-5-(6-methyl-7-oxo-6,7-dihydro-1H-pyrrolo[2,3-c]pyridin-4-yl)-1,3-dihydro-2H-benzimidazol-2-one], the IC50 at BRD4-BD1 was 0.1 to 1 µM; on BRD4-BD2, < 0.1 µM; with KMS.12.BM cells it was ≤ 1 µM; with C-myc, 1 to 10 µM.
For `Cn1cc(-c2ccc3c([nH]c(=O)n3C)c2OC2CCOCC2)c2cc[nH]c2c1=O` [Example 29, 1-Methyl-5-(6-methyl-7-oxo-6,7-dihydro-1H-pyrrolo[2,3-c]pyridin-4-yl)-4-(tetrahydro-2H-pyran-4-yloxy)-1,3-dihydro-2H-benzimidazol-2-one], the IC50 was < 0.1 µM at BRD4-BD1, < 0.1 µM at BRD4-BD2, ≤ 1 µM in the experiment on KMS.12.BM cells and ≤ 1 µM in the experiment on C-myc.
Regarding `Cn1cc(-c2ccc3ncn(CC(=O)N4CCOCC4)c3c2Oc2ccc(F)cc2F)c2cc[nH]c2c1=O` [Example 30, 4-[7-(2,4-Difluorophenoxy)-1-(2-morpholin-4-yl-2-oxoethyl)-1H-benzimidazol-6-yl]-6-methyl-1,6-dihydro-7H-pyrrolo[2,3-c]pyridin-7-one], the IC50 on BRD4-BD1 was < 0.1 µM; at BRD4-BD2 it was < 0.1 µM; in the experiment with KMS.12.BM cells, ≤ 1 µM; in the experiment with C-myc, ≤ 1 µM.
